Data published in PMC11578313, “Miniaturized Modular Click Chemistry‐enabled Rapid Discovery of Unique SARS‐CoV‐2 M^pro Inhibitors With Robust Potency and Drug‐like Profile” (Advanced Science, 2024).
“And” between values parts separate entries of the source, which are not always exact repeats. Equal values may be shown once. Read-outs that look alike come from different tables or passages of the source.

Assays:
[1] = system: Kunming mice; test: Acute toxicity experiment; format: in vivo
Procedure: The acute and subacute toxicity of C5N17B were assessed in Kunming mice. In the acute toxicity study, one group received an oral dose of 500 mg kg^−1 of C5N17B. In the subacute toxicity study, a different group was administered a lower dose of 50 mg kg^−1 of C5N17B. Each experimental set included a control group that received only the vehicle treatment.
Kunming mice were group housed both during acclimation and the study period. The animal room environment was controlled to maintain specific target conditions, including a temperature range of 20 °C to 25 °C, relative humidity levels between 40% and 70%, and an alternating schedule of artificial light for 12 h followed by 12 h of darkness. The age of Kunming mice in the acute/subacute toxicity study was 3–4 weeks, and the body weights were ≈20 g. All animal experiments related to this study were approved by the ethics committee of Cheeloo College of Medicine (approval No. 230014), Shandong University (Jinan, China) Procedures performed in the studies were guided by the ethical standards of the institution.
A group of Kunming mice (comprising three males and three females) was supplied by the Animal Experimental Center of Shandong University. […]

[2] = system: SARS‐CoV‐2 viral RNA; format: cell-based
[3] = system: HCoV‐NL63; test: microbe, parasite or virus in culture; format: cell-based; conditions: Human coronavirus NL63, LLC-MK2, read-out: EC50 ± SD, HCoV‐NL63
[4] = system: SARS‐CoV‐2 Gamma (hCoV‐19/Korea/KDCA95637/2021); test: microbe, parasite or virus in culture; format: cell-based; conditions: Severe acute respiratory syndrome coronavirus 2; Calu‐3; read-out: EC50 ± SD, SARS‐CoV‐2 Gamma
[5] = system: MERS‐CoV; test: microbe, parasite or virus in culture; format: cell-based
[6] = for Plasma concentration (Calculated Concentration): mouse plasma
[7] = in vitro; conditions: human
[8] = C5N17B+Ritonavir, PO 10 mg/kg, individual mice 1#-3#, 10 mg/kg
[9] = C5N17B+Ritonavir, po 10 mg/kg, based on predicted Clast, individual mice, 10 mg/kg
[10] = C5N17B+Ritonavir, po 10 mg/kg, dose-normalised, individual mice, 10 mg/kg
[11] = C5N17B+Ritonavir, po 10 mg/kg, non-compartmental output, individual mice, 10 mg/kg

Cc1cncc(C(=O)N2C[C@H]3CC[C@@H](C2)N3[C@H](c2cccc(F)c2)c2cn(CCc3ccsc3)nn2)c1 [Compound C5N17B]
body weight compared to the control group, acute toxicity ([1]; 500 mg kg^−1, 7 days): no significant changes in body weight | fatalities or abnormal behavior, acute toxicity ([1]; oral dose of 500 mg kg^−1, Kunming mice): No fatalities or abnormal behavior | reduction in viral RNA [2]: exceeded 3 log orders | decrease in viral RNA copy number compared to 10.0 µM nirmatrelvir ([2]; 0.041 µM): 20 fold | EC50 [3]: > 100 µM | EC50 [4]: 260 ± 13 nM | EC50 ± SD, MERS‐CoV [5]: failed to inhibit | EC50 ([5]; Middle East respiratory syndrome-related coronavirus, Huh-7, read-out: EC50 ± SD, MERS‐CoV): > 100 µM | AUC0-∞ [6, 8]: 13462 ng·h/mL and 18653 ng·h/mL | AUC(0-t) [6, 8]: 13105 ng·h/mL and 11834 ng·h/mL | Cmax [6, 8]: 2150 ng/mL and 2470 ng/mL | MRT0-t [6, 8]: 3.43 h and 3.39 h | MRT0-∞ [6, 8]: 3.03 h and 3.63 h and 7.98 h | T1/2 [6, 8]: 1.87 h and 2.03 h and 5.52 h | Plasma concentration (Calculated Concentration) ([6]; C5N17B+Ritonavir, PO 10 mg/kg, 5 min (5min), individual mice, 10 mg/kg): 861 ng/mL and 439 ng/mL | Plasma concentration (Calculated Concentration) ([6]; C5N17B+Ritonavir, PO 10 mg/kg, 0.5 h (30min), individual mice, 10 mg/kg): 1220 ng/mL and 1720 ng/mL | Plasma concentration (Calculated Concentration) ([6]; C5N17B+Ritonavir, PO 10 mg/kg, 1 h, individual mice, 10 mg/kg): 1750 ng/mL and 1960 ng/mL | Plasma concentration (Calculated Concentration) ([6]; C5N17B+Ritonavir, PO 10 mg/kg, 2 h, individual mice, 10 mg/kg): 2270 ng/mL and 2140 ng/mL | Plasma concentration (Calculated Concentration) ([6]; C5N17B+Ritonavir, PO 10 mg/kg, 4 h, individual mice, 10 mg/kg): 1920 ng/mL and 2150 ng/mL | AUCINF_pred [6, 9]: 13994.4 ng·h/mL and 18824.1 ng·h/mL | Cl_F_pred [6, 9]: 922.161 mL/h/kg and 714.573 mL/h/kg and 531.235 mL/h/kg | MRTINF_pred [6, 9]: 3.269 h and 3.905 h and 8.0548 h | Vz_F_pred [6, 9]: 2487.76 mL/kg and 2093.19 mL/kg and 4226.95 mL/kg | AUCINF_D_pred ([6]; C5N17B+Ritonavir, po 10 mg/kg, dose-normalised, based on predicted Clast, individual mice, 10 mg/kg): 1084.41 kg·ng·h/mL/mg and 1399.44 kg·ng·h/mL/mg and 1882.41 kg·ng·h/mL/mg | AUCINF_D_obs [6, 10]: 1039.52 kg·ng·h/mL/mg and 1346.22 kg·ng·h/mL/mg and 1865.31 kg·ng·h/mL/mg | AUClast_D [6, 10]: 968.565 kg·ng·h/mL/mg and 1310.48 kg·ng·h/mL/mg and 1183.41 kg·ng·h/mL/mg | Cmax_D [6, 10]: 227 kg·ng/mL/mg and 215 kg·ng/mL/mg and 247 kg·ng/mL/mg | Tlag ([6]; C5N17B+Ritonavir, po 10 mg/kg, non-compartmental output, individual mice): 0 h | AUCINF_obs [6, 11]: 13462.2 ng·h/mL and 18653.1 ng·h/mL | AUCall [6, 11]: 13104.8 ng·h/mL and 11834.1 ng·h/mL | AUClast [6, 11]: 13104.8 ng·h/mL and 11834.1 ng·h/mL | AUMClast [6, 11]: 25373.2 h*h*ng/ml and 44928.8 h*h*ng/ml and 40086.7 h*h*ng/ml | Cl_F_obs [6, 11]: 742.822 mL/h/kg and 536.103 mL/h/kg | Cmax [6, 11]: 2150 ng/mL and 2470 ng/mL | HL_Lambda_z [6, 11]: 1.87 h and 2.03 h and 5.515 h | Lambda_z [6, 11]: 0.3707 h⁻¹ and 0.3414 h⁻¹ and 0.1257 h⁻¹ | MRTINF_obs [6, 11]: 3.035 h and 3.628 h and 7.982 h | MRTlast [6, 11]: 3.428 h and 3.387 h | Tlast [6, 11]: 6 h and 8 h | Vz_F_obs [6, 11]: 2595.2 mL/kg and 2175.94 mL/kg and 4265.69 mL/kg | Clast_pred ([6]; C5N17B+Ritonavir, po 10 mg/kg, predicted from terminal fit, individual mice, 10 mg/kg): 429.412 ng/mL and 303.677 ng/mL and 878.481 ng/mL | plasma exposure (AUC0‐t) with ritonavir higher than when administered alone ([6]; p.o. 10 mg kg^−1): ~300 fold | CC50 [7]: > 100 µM | CC50 at 2 day ([7]; CC50 (Table 3), Calu‐3 cells): > 100 µM | CC50 at 2 day ([7]; CC50, Calu‐3 cells, MTT assay): > 100 µM | CC50 at 2 day ([7]; CC50, column 9, after the Calu-3 EC50 columns): > 100 µM
